Laboratory results taken from PMC7144209, “Design, synthesis and anticancer activity of naphthoquinone derivatives” (Journal of Enzyme Inhibition and Medicinal Chemistry, 2020).

What was measured:
Type in all cases: cell-based, human
[1] = tested on: LC3-II, P62, Beclin1 in SGC-7901 cells; assay: Western blot of autophagy-related proteins; settings: SGC-7901, Western blot
Protocol: (§1) RIPA lysis buffer was used to dissociate the treated cells. Cells were lysed and the supernatant was harvested after centrifuged for 30 min. The cell proteins were separated using Sodium dodecyl sulphate-polyacrylamide gel electrophoresis, and then they were transferred to the PVDF membranes. The membranes were blocked with skimmed milk solution (5%) for 2 h, then incubated with primary antibodies (1:1000, cst) for 20 h at 4 °C. The membranes were detected by chemiluminescence reagent after probed with the secondary antibody for 1 h.
Autophagy is a process of lysosomal degradation that can deliver the cytoplasmic cargo to the lysosome. To assess whether compound 12 could promote autophagy on SGC-7901 cells, the expressions of autophagy-related proteins were examined. Autophagy will be switched on when LC3-I was converted into LC3-II, and the level of LC3-II involves in the formation of autophagosome. Meanwhile p62 is a marker of the degradative lysosome[43]^,[44]. As shown in Figure 6(A), compound can decrease the level of P62 and increase the expressions of LC3II and Beclin1.

[2] = tested on: Bax, Bcl-2, cleaved PARP in SGC-7901 cells; assay: Western blot of apoptosis-related proteins
Protocol: as §1
Apoptosis is one of the main methods that result in cell death. In this study, Annexin V-FITC/PI kit was used to evaluate the cell apoptosis. […] To further, investigate whether the cell apoptosis induced by title compound, Western blot analysis was used to measure the effect of the compound on apoptosis of SGC-7901 cell. As reported that apoptosis pathway could be regulated by the activation of PARP and Bcl2 family proteins[40]^,[41].

[3] = tested on: GFP-LC3 in SGC-7901 cells; assay: GFP-LC3 transfection, puncta by confocal microscopy
Protocol: A plasmid GFP-tagged LC3 reporter gene (0.8 μg/500 μL) was transfected into SGC-7901 cells by Lipofectamine 2000, then cells were incubated for 24 h. After different treatments for 24 h, cells were fixed with 4% paraformaldehyde for 20 min, and washed three times with PBS. Finally, Laser confocal dishes were analysed using confocal microscope.
Another typical feature of autophagy is the accumulation of the acidic autophagic vacuoles (AVOs)[45]^,[46]. To verify the development of AVOs, Acridine Orange (AO) staining was used to examine whether the acidic vesicular organelles in SGC-7901 cells were increased. AO produces red fluorescence when it accumulates in acidic regions such as autophagy lysosomes and lysosomes and produces bright green fluorescence in the cytoplasm and the nucleus. […] GFP-LC3 indicating technique was also used to detect the autophagy at the same time. When autophagy is formed, multiple bright green fluorescent spots will form as the GFP-LC3 fusion protein can translate to autophagosome membrane. From Figure 6(C), compared to the blank control group, GFP-LC3 puncta were increased after cells treated with compound 12 (4 μM) meanwhile decreased after treated with compound 12 (4 μM) and 3-MA (500 μM).

[4] = SGC-7901, increasing concentration (1, 2, 4 μM)

CC(C)=CCC(OC(=O)CCC(=O)Nc1ccc(Oc2ccccc2)cc1)C1=CC(=O)c2c(O)ccc(O)c2C1=O (stereo not drawn) [Compound 12, 1-(5,8-dihydroxy-1,4-dioxo-1,4-dihydronaphthalen-2-yl)-4-methylpent-3-en-1-yl-4-oxo-4-((4-phenoxyphenyl)amino)butanoate]
expression of Beclin1 [1]: increase
expression of LC3II [1]: increase
level of P62 [1]: decrease
level of Bax [2, 4]: up-regulated
level of Bcl2 [2, 4]: down-regulated
level of cleaved PARP [2, 4]: up-regulated
up-regulation of Bax and cl-PARP and down-regulation of Bcl-2 in the group with 3-MA ([2]; compound 12 with 3-MA 500 μM, 48 h): inhibited
GFP-LC3 puncta vs blank control ([3]; SGC-7901, compound 12 4 μM): increased
GFP-LC3 puncta ([3]; SGC-7901, compound 12 4 μM and 3-MA 500 μM): decreased
